Assay [1] concerns the target T1, cloned human H3 receptors (Homo sapiens, UniProt Q9Y5N1).
T1 construct: expressed in transfected cells
Kind of assay: H3 Receptor Binding (Human) Method 1. Conditions: receptor stably expressed in SK-N-MC cells, free base forms, average of results.

The target of a further assay is human H3 receptor (Homo sapiens, UniProt Q9Y5N1). Description: H3 Receptor Binding (Human) Method 2, [125I]-iodoproxyfan competitive radioligand binding. More on the design: expressed in transfected cells. Conditions: read-out: Human H3 Ki.
Another assay concerns the target T2, cloned rat H3 receptors (Rattus norvegicus, UniProt Q9QYN8).
T2 construct: expressed in transfected cells
Description: H3 Receptor Binding (Rat).

A further assay has as its target T3, rat H3 receptor (Rattus norvegicus, UniProt Q9QYN8).
T3 construct: expressed in transfected cells; host or cells: SK-N-MC sublines with a reporter construct
Kind of assay: Cyclic AMP Accumulation (rat H3 reporter subline). The assay is classed as cell-based. Conditions: SK-N-MC subline with reporter construct and rat H3 receptor, free base or trifluoroacetate salt, average; for Kb: read-out: Rat pA2 (converted).

Where [2] appears, read: receptor stably expressed in SK-N-MC cells, free base or hydrochloride salt, average of results, read-out: Rat H3 Ki.

Experimental findings from patent US8236792B2, “Substituted pyrrolidine amides as modulators of the histamine H3 receptor” (Janssen Pharmaceutica NV, priority 2008, dated 2012) are described below.

Like-named read-outs stand apart in the source and are kept apart here. Where only a bound is given, the exact number is not on record here.

T1 sequence (Q9Y5N1 whole entry): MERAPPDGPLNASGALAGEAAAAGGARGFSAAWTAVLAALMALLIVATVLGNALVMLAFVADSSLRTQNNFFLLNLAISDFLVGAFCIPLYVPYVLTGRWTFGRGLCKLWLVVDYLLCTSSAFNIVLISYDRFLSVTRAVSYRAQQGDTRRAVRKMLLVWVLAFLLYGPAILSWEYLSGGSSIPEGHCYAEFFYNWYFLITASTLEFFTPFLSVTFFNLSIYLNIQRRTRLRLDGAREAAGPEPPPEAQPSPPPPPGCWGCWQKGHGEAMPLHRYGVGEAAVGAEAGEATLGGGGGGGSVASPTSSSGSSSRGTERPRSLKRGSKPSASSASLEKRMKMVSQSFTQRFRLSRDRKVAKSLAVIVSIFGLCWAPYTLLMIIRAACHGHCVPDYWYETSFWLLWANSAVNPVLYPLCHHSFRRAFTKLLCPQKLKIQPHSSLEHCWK
human H3 receptor, sequence (Q9Y5N1 whole entry): as above
T3 sequence (Q9QYN8 whole entry): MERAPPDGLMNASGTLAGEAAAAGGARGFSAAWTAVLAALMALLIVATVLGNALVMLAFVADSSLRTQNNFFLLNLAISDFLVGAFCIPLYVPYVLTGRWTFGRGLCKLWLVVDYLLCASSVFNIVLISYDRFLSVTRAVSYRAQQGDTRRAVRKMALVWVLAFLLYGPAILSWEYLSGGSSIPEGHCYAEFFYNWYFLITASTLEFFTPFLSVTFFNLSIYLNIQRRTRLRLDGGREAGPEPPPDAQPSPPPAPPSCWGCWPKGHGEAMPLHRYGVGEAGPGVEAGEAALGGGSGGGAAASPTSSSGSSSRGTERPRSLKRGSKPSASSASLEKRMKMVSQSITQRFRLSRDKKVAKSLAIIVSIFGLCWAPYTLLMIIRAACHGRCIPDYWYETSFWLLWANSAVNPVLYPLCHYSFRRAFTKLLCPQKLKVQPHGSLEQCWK
T2 sequence (Q9QYN8 whole entry): as above
Description for cloned rat H3 receptors: Compounds were tested for binding to cloned rat H3 receptors, stably expressed in SK-N-MC cells.
Compounds were tested in their free base or hydrochloride salt forms.

In the case of `CC(C)(C)OC(=O)N1C[C@@H](Oc2ccc(C#N)cc2)C[C@@H]1C(=O)N1CCCN(C2CCC2)CC1` [Example 16, (2R,4S)-4-(4-Cyano-phenoxy)-2-(4-cyclobutyl-[1,4]diazepane-1-carbonyl)-pyrrolidine-1-carboxylic acid tert-butyl ester], the Ki was determined as 3 nM in assay [1] and 2 nM at human H3 receptor.
`CC(C)(C)OC(=O)N1C[C@@H](Oc2cccc(F)c2)C[C@@H]1C(=O)N1CCCN(C2CCC2)CC1` [Example 17, (2R,4S)-2-(4-Cyclobutyl-[1,4]diazepane-1-carbonyl)-4-(3-fluoro-phenoxy)-pyrrolidine-1-carboxylic acid tert-butyl ester]: the inhibition constant (Ki) (in assay [1]; at human H3 receptor) was 3 nM throughout.
As for `CC(C)(C)OC(=O)N1C[C@@H](Oc2ccccc2)C[C@@H]1C(=O)N1CCCN(C2CCC2)CC1` [Example 19, (2R,4S)-2-(4-Cyclobutyl-[1,4]diazepane-1-carbonyl)-4-phenoxy-pyrrolidine-1-carboxylic acid tert-butyl ester], the Ki in assay [1] was found to be 5 nM; on human H3 receptor, 9 nM.
For the compound `CC(C)(C)OC(=O)N1C[C@@H](Oc2cccc(Cl)c2)C[C@@H]1C(=O)N1CCCN(C2CCC2)CC1` [Example 20, (2R,4S)-4-(3-Chloro-phenoxy)-2-(4-cyclobutyl-[1,4]diazepane-1-carbonyl)-pyrrolidine-1-carboxylic acid tert-butyl ester], the Ki was determined as 12 nM in assay [1] and 4 nM at human H3 receptor.
In the case of `CC(C)(C)OC(=O)N1C[C@@H](Oc2ccc(Cl)cc2)C[C@@H]1C(=O)N1CCCN(C2CCC2)CC1` [Example 21, (2R,4S)-4-(4-Chloro-phenoxy)-2-(4-cyclobutyl-[1,4]diazepane-1-carbonyl)-pyrrolidine-1-carboxylic acid tert-butyl ester], the figures for the Ki (in assay [1]; on human H3 receptor) were 12 nM and 3 nM, respectively.
For the compound `Cc1cccc(O[C@H]2C[C@H](C(=O)N3CCCN(C4CCC4)CC3)N(C(=O)OC(C)(C)C)C2)c1` [Example 27, (2R,4S)-2-(4-Cyclobutyl-[1,4]diazepane-1-carbonyl)-4-m-tolyloxy-pyrrolidine-1-carboxylic acid tert-butyl ester], the Ki on cloned rat H3 receptors (setting [2]) turned out to be 232 nM; on human H3 receptor it was 5 nM.
`N#Cc1ccc(O[C@@H]2CN[C@@H](C(=O)N3CCCN(C4CCC4)CC3)C2)cc1` [Example 64, (3S,5R)-4-[5-(4-Cyclobutyl-[1,4]diazepane-1-carbonyl)-pyrrolidin-3-yloxy]-benzonitrile] came in with a Ki at cloned rat H3 receptors of 466 nM. On rat H3 receptor, the Kb was 12.9 nM.
`O=C([C@H]1C[C@H](Oc2cccc(F)c2)CN1)N1CCCN(C2CCC2)CC1` [Example 65, (2R,4S)-4-(3-Fluoro-phenoxy)-2-(4-cyclobutyl-[1,4]diazepane-1-carbonyl)-pyrrolidine]: the affinity on cloned rat H3 receptors, expressed as Ki, was 12 nM. In addition, the Kb on rat H3 receptor was 7.41 nM.
For `O=C([C@H]1C[C@H](Oc2cccc(Cl)c2)CN1)N1CCCN(C2CCC2)CC1` [Example 68, (2R,4S)-4-(3-chloro-phenoxy)-2-(4-cyclobutyl-[1,4]diazepane-1-carbonyl)-pyrrolidine], at rat H3 receptor, the “Rat pA2” value worked out at 8.59.
On to `O=C([C@H]1C[C@H](Oc2ccc(Cl)cc2)CN1)N1CCCN(C2CCC2)CC1` [Example 69, (2R,4S)-4-(4-Chloro-phenoxy)-2-(4-cyclobutyl-[1,4]diazepane-1-carbonyl)-pyrrolidine], for which the Ki at cloned rat H3 receptors (setting [2]) came to 18 nM. For the same compound, the “Rat pA2” value at rat H3 receptor was determined as 8.30.
Take `O=C([C@H]1C[C@H](Oc2ccc(F)cc2)CN1)N1CCCN(C2CCCC2)CC1` [Example 82, (2R,4S)-2-(4-Cyclopentyl-[1,4]diazepane-1-carbonyl)-4-(4-fluoro-phenoxy)-pyrrolidine]: on cloned rat H3 receptors (setting [2]), the inhibition constant Ki was determined as 18 nM. For the same compound, the “Rat pA2” value on rat H3 receptor is 8.21.
As for `O=C([C@@H]1C[C@@H](Oc2cccc(Cl)c2)CN1)N1CCCN(C2CCC2)CC1` [Example 88, (2S,4R)-4-(3-Chloro-phenoxy)-2-(4-cyclobutyl-[1,4]diazepane-1-carbonyl)-pyrrolidine], the Ki on cloned rat H3 receptors (setting [2]) worked out at 130 nM.
Consider `O=C([C@@H]1C[C@@H](Oc2ccc(Cl)c(Cl)c2)CN1)N1CCCN(C2CCC2)CC1` [Example 92, (2S,4R)-2-(4-Cyclobutyl-[1,4]diazepane-1-carbonyl)-4-(3,4-dichloro-phenoxy)-pyrrolidine], for which the inhibitory constant (Ki) in assay [1] was 51 nM.
Regarding `O=C([C@@H]1C[C@H](Oc2ccc(Cl)c(Cl)c2)CN1)N1CCCN(C2CCC2)CC1` [Example 93, (2S,4S)-2-(4-Cyclobutyl-[1,4]diazepane-1-carbonyl)-4-(3,4-dichloro-phenoxy)-pyrrolidine], affinity in assay [1] was put at a Ki of 88 nM.
In turn, `CSc1ccc(O[C@@H]2CN[C@H](C(=O)N3CCCN(C4CCC4)CC3)C2)cc1` [Example 97, (2S,4S)-2-(4-Cyclobutyl-[1,4]diazepane-1-carbonyl)-4-(4-methylsulfanyl-phenoxy)-pyrrolidine] gave a Ki in assay [1] of 89 nM.
Take `CN1C[C@@H](Oc2ccc(F)cc2)C[C@H]1C(=O)N1CCN(C2CCC2)CC1` [Example 107, (2S,4S)-1-Methyl-2-(4-cyclobutyl-piperazine-1-carbonyl)-4-(4-fluoro-phenoxy)-pyrrolidine]: the Ki in assay [1] turned out to be 523 nM.
In assay [1], `CCC(=O)N1C[C@@H](Oc2ccc(F)cc2)C[C@H]1C(=O)N1CCCN(C2CCC2)CC1` [Example 116, (2S,4S)-1-[2-(4-Cyclobutyl-[1,4]diazepane-1-carbonyl)-4-(4-fluoro-phenoxy)-pyrrolidin-1-yl]-propan-1-one] registered a Ki of 152 nM.
On to `CC(C)C(=O)N1C[C@@H](Oc2ccc(F)cc2)C[C@H]1C(=O)N1CCCN(C2CCC2)CC1` [Example 117, (2S,4S)-1-[2-(4-Cyclobutyl-[1,4]diazepane-1-carbonyl)-4-(4-fluoro-phenoxy)pyrrolidin-1-yl]-2-methyl-propan-1-one], for which, in assay [1], affinity was put at a Ki of 796 nM.
Consider `CC(C)(C)CC(=O)N1C[C@@H](Oc2ccc(F)cc2)C[C@H]1C(=O)N1CCCN(C2CCC2)CC1` [Example 118, (2S,4S)-1-[2-(4-Cyclobutyl-[1,4]diazepane-1-carbonyl)-4-(4-fluoro-phenoxy)-pyrrolidin-1-yl]-3,3-dimethyl-butan-1-one], for which the Ki in assay [1] was determined as 816 nM.
`CC(=O)N1C[C@@H](Oc2ccc(F)cc2)C[C@H]1C(=O)N1CCN(C2CCC2)CC1` [Example 119, (2S,4S)-1-[2-(4-Cyclobutyl-piperazine-1-carbonyl)-4-(4-fluoro-phenoxy)-pyrrolidin-1-yl]-ethanone]: in assay [1], the affinity corresponds to a Ki of 300 nM.
As for `CSc1ccc(O[C@H]2C[C@H](C(=O)N3CCCN(C4CCC4)CC3)N(C(C)=O)C2)cc1` [Example 121, (2R,4S)-1-[2-(4-Cyclobutyl-[1,4]diazepane-1-carbonyl)-4-(4-methylsulfanyl-phenoxy)-pyrrolidin-1-yl]-ethanone], the Ki was determined as 15 nM at cloned rat H3 receptors (setting [2]) and 2 nM at human H3 receptor.
Consider `CC(=O)N1C[C@@H](Oc2ccc(Cl)c(C)c2)C[C@@H]1C(=O)N1CCCN(C2CCC2)CC1` [Example 122, (2R,4S)-1-[4-(4-Chloro-3-methyl-phenoxy)-2-(4-cyclobutyl-[1,4]diazepane-1-carbonyl)-pyrrolidin-1-yl]-ethanone], for which the inhibitory constant (Ki) on cloned rat H3 receptors (setting [2]) was determined as 12 nM; at human H3 receptor it was 1 nM.
Take `CS(=O)(=O)N1C[C@@H](Oc2ccc(F)cc2)C[C@H]1C(=O)N1CCCN(C2CCC2)CC1` [Example 137, (2S,4S)-1-Methanesulfonyl-2-(4-cyclobutyl-[1,4]diazepane-1-carbonyl)-4-(4-fluoro-phenoxy)-pyrrolidine]: the affinity in assay [1], expressed as Ki, was 206 nM.
Regarding `CS(=O)(=O)N1C[C@@H](Oc2ccc(F)cc2)C[C@H]1C(=O)N1CCN(C2CCC2)CC1` [Example 138, (2S,4S)-2-(4-Cyclobutyl-piperazin-1-yl)-[4-(4-fluoro-phenoxy)-1-methanesulfonyl-pyrrolidin-2-yl]-methanone], the inhibitory constant (Ki) in assay [1] is above 10000 nM.
The compound `CC(C)(C)OC(=O)N1C[C@H](OCc2cccc(F)c2)C[C@@H]1C(=O)N1CCCN(C2CCC2)CC1` [Example 150, (2R,4R)-2-(4-Cyclobutyl-[1,4]diazepane-1-carbonyl)-4-(3-fluoro-benzyloxy)-pyrrolidine-1-carboxylic acid tert-butyl ester] had a Ki in assay [1] of 77 nM.
In the case of `CC(C)(C)OC(=O)N1C[C@H](OCc2ccc(F)cc2)C[C@@H]1C(=O)N1CCCN(C2CCC2)CC1` [Example 151, (2R,4R)-2-(4-Cyclobutyl-[1,4]diazepane-1-carbonyl)-4-(4-fluoro-benzyloxy)-pyrrolidine-1-carboxylic acid tert-butyl ester], affinity in assay [1] was put at a Ki of 34 nM.
`O=C([C@H]1C[C@H](OCc2cccc(F)c2)CN1)N1CCCN(C2CCC2)CC1` [Example 152, (2R,4S)-2-(4-Cyclobutyl-[1,4]diazepane-1-carbonyl)-4-(3-fluoro-benzyloxy)-pyrrolidine]: the Ki at cloned rat H3 receptors (setting [2]) turned out to be 8 nM; on human H3 receptor, 4 nM.
`O=C([C@H]1C[C@H](OCc2ccc(F)cc2)CN1)N1CCCN(C2CCC2)CC1` [Example 153, (2R,4S)-2-(4-Cyclobutyl-[1,4]diazepane-1-carbonyl)-4-(4-fluoro-benzyloxy)-pyrrolidine]: the results for the Ki at cloned rat H3 receptors (setting [2]) and at human H3 receptor were 13 nM and 3 nM, respectively.
Turning to `O=C([C@H]1C[C@@H](OCc2cccc(F)c2)CN1)N1CCCN(C2CCC2)CC1` [Example 154, (2R,4R)-2-(4-Cyclobutyl-[1,4]diazepane-1-carbonyl)-4-(3-fluoro-benzyloxy)-pyrrolidine], the Ki in assay [1] is 149 nM.
In assay [1], `O=C([C@H]1C[C@@H](OCc2ccc(F)cc2)CN1)N1CCCN(C2CCC2)CC1` [Example 155, (2R,4R)-2-(4-Cyclobutyl-[1,4]diazepane-1-carbonyl)-4-(4-fluoro-benzyloxy)-pyrrolidine] came in with a Ki of 160 nM.

One may read the Ki as a measure of affinity in units of concentration, obtained from inhibition or displacement.
